Laboratory results: patent US20090082368A1, “METHODS OF MODULATING NEUROTROPHIN-MEDIATED ACTIVITY” (PainCeptor Pharma Corporation, priority 2007, published 2009)
Like-named read-outs stand apart in the source and are kept apart here.

Experiments:
[1] = tested on: NGF-induced ERK phosphorylation; assay: Inhibition of NGF-induced Erk 1/2 phosphorylation (pERK); format: cell-based; conditions: Rattus norvegicus, Table 2
Experimental: This assay is useful for establishing that the compounds of the invention are functional NGF antagonists, not receptor agonists (an agonist could conceivably block NGF binding but actually activate the receptor). Erk 1/2 is a kinase activated down stream of TrkA and is a well studied member of the NGF-induced signal transduction cascade.
PC12 cells expressing TrkA and p75 are acutely exposed to 1 ng/mL NGF (15 min; 37° C.; 5% CO2) that is pre-incubated (30 min; room temperature) with or without the compounds. Cells are lysed in Laemmli sample buffer (for SDS-PAGE) or a lysis buffer containing Triton X-100 (for ELISA). Following SDS-PAGE, proteins are electroblotted onto nitrocellulose and immunoprobed for phosphorylated Erk 1 and 2. Blocking and primary antibody incubations of immunoblots are performed in Tris-buffered saline-Tween (10 mM Tris, pH 8.0, 150 mM NaCl, and 0.2% Tween 20) supplemented with 5% (w/v) bovine serum albumin (BSA); secondary antibody incubations are performed in 5% (w/v) dried skim milk powder. Immunoreactive bands are detected by chemiluminescence.
A quantitative method to detect phosphorylated Erk 1/2 by immunofluorescence is also used. Neuroscreen-1 cells are grown in a 96 well plate. NGF preincubated with or without the compounds for 30 minutes, is added to the cells for 5 minutes at 37° C. Cells are then fixed and stained with an antibody against phosphor-ERK 1/2. A fluorescently labeled secondary antibody is used to show the presence of phosphorylated ERK 1/2. Quantitative results are generated by photographing the wells with light of the appropriate wavelength, followed by software based image analysis.

[2] = tested on: NGF receptors on PC12 cells (TrkA+p75); assay: NGF binding (125I-NGF) using PC12 cells; parameters: species or system rat
Experimental: NGF binding was evaluated using methods familiar to those who are skilled in the art. Briefly, cells expressing one or both NGF receptors (PC12: TrkA+p75; A875: p75 alone; HEK/CHO_trkA: TrkA alone) were harvested by replacing the medium with the cell dissociation buffer (Amersham) and incubating at 37° C. for 15 min. […] For most compounds, multiple dose-response curves were generated.
The IC50 data shown in Tables A-J were acquired using the procedure described herein using PC12 cells.

PC12 cells = assay: Inhibition of NGF-induced neurite outgrowth; format: cell-based; conditions: Rattus norvegicus, PC-12, 96 h, Table 3, 4 days exposure to NGF
Experimental: This assay is run as a further functional marker of NGF antagonism and takes advantage of the differentiation of PC12 cells (neurite outgrowth) induced by NGF. Cultures of PC12 cells are grown on Terasaki plates pre-coated with poly-D-lysine. Cells are exposed to NGF (1-50 (preferably 5) ng/ml) to induce neurite outgrowth as described elsewhere [LA Greene & AS Tischler, Establishment of a noradrenergic clonal line of rat adrenal pheochromocytoma cells which respond to nerve growth factor, Proc Natl Acad Sci USA. 1976 July; 73(7): 2424-2428]. In addition to NGF, cells are exposed to varying concentration of the compounds or vehicle. Following 4 days of exposure to NGF in the presence or absence of compound, neurite outgrowth is quantified. A neurite is scored if its caliber from origin to terminal is approximately the same and the length is equal to or greater than 1.5 the cell body diameter. The number of neurite bearing cells per total number of viable cells is calculated for each condition; the number of cells with neurites in the presence of NGF (without compound exposure) is considered to represent maximal (100%) outgrowth, to which the inhibitory effect of compounds of the invention on NGF-induced outgrowth is compared.

[3] = Table A (Formula Ia), NGF binding, PC12 cells, read-out: IC50
[4] = Table B (Formula Ib), NGF binding, PC12 cells, read-out: IC50
[5] = Table 3, read-out: NGF Binding Assay IC50
[6] = Table I (Formula VII), NGF binding, PC12 cells, read-out: IC50
[7] = Table 2, read-out: NGF Binding Assay IC50
[8] = Table J (Formula VIII), NGF binding, PC12 cells, read-out: IC50

Row | IC50 [1] | IC50 [2, 8] | Compound | other results
1 | 5 to 15 µM | – | Nc1ccc(C(=O)O)cc1N1C(=O)c2ccc3c4c(ccc(c24)C1=O)C(=O)N(C(CCC(=O)O)C(=O)O)C3=O (stereo not drawn) [Compound 9D] | IC50 (PC12 cells): 0.1 to 5 µM
2 | 0.1 to 5 µM | – | O=C(O)CCCCN1C(=O)c2ccc(-c3ccc4c(c3)C(=O)N(CCCCC(=O)O)C4=O)cc2C1=O [Compound 10C] | –
3 | 0.1 to 5 µM | – | O=C1c2ccc(-c3ccc4c(c3)C(=O)N(CCCS(=O)(=O)O)C4=O)cc2C(=O)N1CCCS(=O)(=O)O [Compound 11C] | –
4 | – | < 10 µM | Nc1cc2c3c(cccc3c1)C(=O)N(CCCC(=O)O)C2=O [Compound 28G, 4-(5-Amino-1,3-dioxo-1H-benzo[de]isoquinolin-2(3H)-yl)butanoic acid] | –
5 | – | < 10 µM | CC(=O)Nc1cc2c3c(cccc3c1)C(=O)N(CCCC(=O)O)C2=O [Compound 29G] | –
6 | – | 10 to 29 µM | O=C(O)CCCN1C(=O)c2cccc3cc(C(=O)O)cc(c23)C1=O [Compound 33G] | –
7 | – | 10 to 29 µM | N#Cc1ccc2c3c(cccc13)C(=O)N(CCCC(=O)O)C2=O [Compound 34G] | –
8 | – | 10 to 29 µM | O=C(O)CCCN1C(=O)c2cccc3c([N+](=O)[O-])ccc(c23)C1=O [Compound 35G] | –
9 | – | 30 to 50 µM | O=C(O)CCCN1C(=O)c2cccc3c(Br)ccc(c23)C1=O [Compound 36G] | –
10 | – | 10 to 29 µM | O=C(O)CCCN1C(=O)c2cccc3c(C(=O)c4ccccc4)ccc(c23)C1=O [Compound 40G] | –

The remaining lines, values behind:

Row | Compound | IC50 [1] | IC50 [2, 8] | other results
11 | O=C(O)CCCN1C(=O)c2ccc(-c3ccc4c(c3)C(=O)N(CCCC(=O)O)C4=O)cc2C1=O [Compound 1C] | 0.1 to 5 µM | – | –
12 | O=C(O)CCCN1C(=O)c2ccc(C(=O)O)cc2C1=O [Compound 1] | – | – | IC50 [2, 3]: > 50 µM
13 | O=C(O)CCCCN1C(=O)c2ccc(C(=O)O)cc2C1=O [Compound 2] | – | – | IC50 [2, 3]: > 50 µM
14 | O=C(O)c1ccc(Cl)c(N2C(=O)c3ccc4c5c(ccc(c35)C2=O)C(=O)N(c2cc(C(=O)O)ccc2Cl)C4=O)c1 [Compound 3D] | – | – | IC50 (PC12 cells): 0.1 to 5 µM
15 | O=C(O)c1cccc(N2C(=O)c3ccc(C(=O)O)cc3C2=O)c1 [Compound 3] | – | – | IC50 [2, 3]: > 50 µM
16 | O=C(O)c1ccc2c(c1)C(=O)N(c1cc(C(=O)O)ccc1Cl)C2=O [Compound 6] | – | – | IC50 [2, 3]: > 50 µM
17 | N#Cc1ccc2c(c1)CN(c1cccc(C(=O)O)c1)C2=O [Compound 8A] | – | – | IC50 [2, 4]: > 50 µM
18 | O=C(O)CCN1C(=O)c2ccc(-c3ccc4c(c3)C(=O)N(CCC(=O)O)C4=O)cc2C1=O [Compound 9C] | 5 to 15 µM | – | –
19 | O=C(O)c1cccc(N2Cc3cc(C(=O)O)ccc3C2=O)c1 [Compound 12A, 2-(3-Carboxyphenyl)-1-oxoisoindoline-5-carboxylic acid] | – | – | IC50 [2, 5]: 10 to 29 µM; IC50 [2, 4]: 10 to 29 µM; IC50 (PC12 cells): 5 to 15 µM
20 | CCOC(=O)c1cccc(N2Cc3cc(C(=O)O)ccc3C2=O)c1 [Compound 15A] | 5 to 15 µM | – | –
21 | CN(C)c1cc2c3c(cc(N(C)C)cc3c1)C(=O)N(CCCC(=O)O)C2=O [Compound 15G] | – | – | IC50 [2, 6]: 30 to 50 µM
22 | CC(C)Nc1cc2c3c(cc(NC(C)C)cc3c1)C(=O)N(CCCC(=O)O)C2=O [Compound 16G] | – | – | IC50 [2, 6]: 10 to 29 µM
23 | O=C(O)CCCN1C(=O)c2cc(C(=O)O)cc3cc([N+](=O)[O-])cc(c23)C1=O [Compound 17G, 2-(3-Carboxypropyl)-8-nitro-1,3-dioxo-2,3-dihydro-1H-benzo[de]isoquinoline-5-carboxylic acid] | – | – | IC50 [2, 6]: < 10 µM
24 | Nc1cc2c3c(cc(C(=O)O)cc3c1)C(=O)N(CCCC(=O)O)C2=O [Compound 18G, 8-Amino-2-(3-carboxypropyl)-1,3-dioxo-2,3-dihydro-1H-benzo[de]isoquinoline-5-carboxylic acid] | – | – | IC50 [2, 6]: < 10 µM
25 | O=C(O)c1ccc(Cl)c(N2C(=O)c3cccc([N+](=O)[O-])c3C2=O)c1 [Compound 18] | – | – | IC50 [2, 3]: > 50 µM
26 | O=C(O)CCCCCN1C(=O)c2ccc(-c3ccc4c(c3)C(=O)N(CCCCCC(=O)O)C4=O)cc2C1=O [Compound 19C] | 0.1 to 5 µM | – | –
27 | CC(=O)Nc1cc2c3c(cc(C(=O)O)cc3c1)C(=O)N(CCCC(=O)O)C2=O [Compound 19G, 8-(Acetylamino)-2-(3-carboxypropyl)-1,3-dioxo-2,3-dihydro-1H-benzo[de]isoquinoline-5-carboxylic acid] | 5 to 15 µM | – | IC50 [2, 7]: < 10 µM; IC50 [2, 6]: < 10 µM

Row | Compound | IC50 [1] | IC50 [2, 8] | other results
28 | N#Cc1cc2c3c(cc(C#N)cc3c1)C(=O)N(CCCC(=O)O)C2=O [Compound 20G] | – | – | IC50 [2, 6]: < 10 µM
29 | O=C(O)CCCCCCN1C(=O)c2ccc(-c3ccc4c(c3)C(=O)N(CCCCCCC(=O)O)C4=O)cc2C1=O [Compound 21C] | 5 to 15 µM | – | –
30 | O=C(O)c1cccc(N2C(=O)c3cc(-n4cccc4)cc4cc(-n5cccc5)cc(c34)C2=O)c1 [Compound 21G] | – | – | IC50 [2, 6]: > 50 µM
31 | O=C(O)CCCCCCCN1C(=O)c2ccc(-c3ccc4c(c3)C(=O)N(CCCCCCCC(=O)O)C4=O)cc2C1=O [Compound 22C] | 5 to 15 µM | – | –
32 | O=C(O)CCCN1C(=O)c2ccc(-c3ccc4c(c3)C(=O)N(CCCc3nnn[nH]3)C4=O)cc2C1=O [Compound 23C] | 0.1 to 5 µM | – | –
33 | O=C(O)CCCN1C(=O)c2cccc3cccc(c23)C1=O [Compound 26G] | – | > 50 µM | –
34 | O=C(O)CCCN1C(=O)c2cccc3cc([N+](=O)[O-])cc(c23)C1=O [Compound 27G, 4-(5-Nitro-1,3-dioxo-1H-benzo[de]isoquinolin-2(3H)-yl)butanoic acid] | – | < 10 µM | –
35 | NC(=O)c1cc2c3c(cccc3c1)C(=O)N(CCCC(=O)O)C2=O [Compound 30G] | – | 10 to 29 µM | –
36 | CN(C)S(=O)(=O)c1cc2c3c(cccc3c1)C(=O)N(CCCC(=O)O)C2=O [Compound 31G] | – | > 50 µM | –
37 | N#Cc1cc2c3c(cccc3c1)C(=O)N(CCCC(=O)O)C2=O [Compound 32G] | 5 to 15 µM | < 10 µM | IC50 [2, 7]: < 10 µM; IC50 [2, 5]: < 10 µM; IC50 (PC12 cells): 5 to 15 µM
38 | O=C(O)CCCN1C(=O)c2cccc3c(S(=O)(=O)O)ccc(c23)C1=O [Compound 37G] | – | > 50 µM | –
39 | O=C(O)CCCN1C(=O)c2cccc3c(Cl)ccc(c23)C1=O [Compound 38G] | – | 10 to 29 µM | –
40 | O=C(O)CCCN1C(=O)c2cccc3c(C(=O)O)ccc(c23)C1=O [Compound 39G] | – | 10 to 29 µM | –
41 | O=C(O)c1ccc2c(c1)C(=O)N(CCN1C(=O)c3ccc(C(=O)O)cc3C1=O)C2=O [Compound 41C] | – | – | IC50 ([2]; Table E (Formula IIIA), NGF binding, PC12 cells, read-out: IC50): < 10 µM
42 | CN(C)S(=O)(=O)c1ccc2c3c(cccc13)C(=O)N(CCCC(=O)O)C2=O [Compound 41G] | – | < 10 µM | –
43 | O=C(O)CCCN1C(=O)c2cccc3cc(-c4cccc(C(=O)O)c4)cc(c23)C1=O [Compound 45G] | 15 to 25 µM | – | –
44 | O=C(O)CCCN1C(=O)c2cccc3cc(-c4nnn[nH]4)cc(c23)C1=O [Compound 46G] | 5 to 15 µM | – | IC50 (PC12 cells): 5 to 15 µM
